Earlier results on 1 compound are cited in patent US7012060B1, “TNF receptor and steroid hormone in a combined therapy” (priority 1995, dated 2006).

The subject of data set [1] is systemic lupus erythematosus. The note with it: mouse model; cited from earlier work.
Data set [2] has as its system septic shock induced by Tumor Necrosis Factor alpha (TNF-α) in combination with D-Galactosamine. As to conditions: mice; cited from earlier work.

On to `C[C@]12CC[C@H](O)CC1=CC[C@@H]1[C@@H]2CC[C@]2(C)C(=O)CC[C@@H]12` [DHEA, Dehydroepiandrosterone], for which the “development of systemic lupus erythematosus” value in data set [1] is on record as “prevent the development”. Also, the “protection from septic shock” value in data set [2] was “protecting mice from septic shock”.
